From ChEMBL document CHEMBL4340517, “Synthesis and biological evaluation of 7-substituted cycloberberine derivatives as potent antibacterial agents against MRSA” (2019)
≈ marks a conversion by molar mass, not a printed value. Calls of active or inactive are those of the source. The calls are words filed in the database; no cut-off is given here.

Tests used:
Staphylococcus aureus [1] = test: Antibacterial activity against methicillin-sensitive Staphylococcus aureus ATCC 29213 after 18 hrs by agar dilution method; assay type: functional; settings: ATCC 29213, 18 h
Staphylococcus aureus [2] = test: Antibacterial activity against methicillin-resistant Staphylococcus aureus ATCC 33591 after 18 hrs by agar dilution method; assay type: functional; settings: ATCC 33591, 18 h
Staphylococcus aureus [3] = test: Antibacterial activity against VAN-intermediate Staphylococcus aureus ATCC 700698 after 18 hrs by agar dilution method; assay type: functional; settings: ATCC 700698, 18 h
[4] = system: Staphylococcus epidermidis; test: Antibacterial activity against methicillin-resistant Staphylococcus epidermidis 13-3 after 18 hrs by agar dilution method; assay type: functional; settings: 13-3, 18 h
Enterococcus faecalis [5] = test: Antibacterial activity against VAN-sensitive Enterococcus faecalis ATCC 29212 after 18 hrs by agar dilution method; assay type: functional; settings: ATCC 29212, 18 h
Enterococcus faecalis [6] = test: Antibacterial activity against VAN-resistant Enterococcus faecalis ATCC 51299 after 18 hrs by agar dilution method; assay type: functional; settings: ATCC 51299, 18 h
Enterococcus faecium = test: Antibacterial activity against VAN-resistant Enterococcus faecium ATCC 700221 after 18 hrs by agar dilution method; assay type: functional; settings: ATCC 700221, 18 h
Staphylococcus aureus [7] = test: Antibacterial activity against methicillin-resistant Staphylococcus aureus 18-4 after 18 hrs by agar dilution method; assay type: functional; settings: 18-4, 18 h
Staphylococcus aureus [8] = test: Bactericidal activity against methicillin-resistant Staphylococcus aureus 18-4 assessed as reduction in bacterial growth at 2 to 32 times MIC measured within 8 hrs by time kill assay relative to control; assay type: functional
Staphylococcus aureus [9] = test: Bactericidal activity against methicillin-resistant Staphylococcus aureus 18-4 assessed as reduction in bacterial growth at 2 times MIC measured after 24 hrs by time kill assay relative to control; assay type: functional
Staphylococcus aureus [10] = test: Bactericidal activity against methicillin-resistant Staphylococcus aureus 18-4 assessed as reduction in bacterial growth at 8 times MIC measured within 2 hrs by time kill assay relative to control; assay type: functional
[11] = biological target: Topoisomerase IV (Staphylococcus aureus) (UniProt P0C1U9+P0C1S7); test: Inhibition of methicillin-resistant Staphylococcus aureus topoisomerase-4 assessed as reduction in DNA decatenation at 2.5 to 5 ug/ml using super coiled pBR322 plasmid DNA as substrate measured after 30 mins by agarose gel electrophoresis method relative to control; assay type: protein-complex assay

Row | Compound | MIC (Staphylococcus aureus [1]) [µg/mL] | MIC (Staphylococcus aureus [2]) [µg/mL] | MIC (Staphylococcus aureus [3]) [µg/mL] | MIC [4] [µg/mL] | MIC (Enterococcus faecalis [5]) [µg/mL] | MIC (Enterococcus faecalis [6]) [µg/mL] | MIC (Enterococcus faecium) [µg/mL] | MIC (Staphylococcus aureus [7]) [µg/mL] | growth inhibition (GI) (Staphylococcus aureus [8]) [%] | growth inhibition (GI) (Staphylococcus aureus [9]) [%] | growth inhibition (GI) (Staphylococcus aureus [10]) [%] | inhibition [11]
1 | CCc1cc2c3ccc(OC)c(OC)c3c(-c3ccccc3)[n+]3c2c2c(cc4c(c12)OCO4)CC3.[Br-] | 1 | 8 | 32 | 1 | 4 | 4 | 1 | – | – | – | – | –
2 | CCc1c2c(OC)c(OC)ccc2c2ccc3c4c(cc5c3c2[n+]1CC5)OCO4.[Br-] | 4 | 16 | 64 | 4 | 16 | 16 | 8 | – | – | – | – | –
3 | COc1cc2c3c(ccc4c5ccc(OC)c(OC)c5c(-c5ccc6c(c5)OCO6)[n+](c43)CC2)c1OC.[Br-] | 4 | 8 | 32 | 2 | 32 | 32 | > 128 | – | – | – | – | –
4 | CCc1cc2c3ccc(OC)c(OC)c3c(-c3ccc(Cl)cc3)[n+]3c2c2c(cc4c(c12)OCO4)CC3.[Br-] | 1 | 2 | 32 | 1 | 4 | 4 | 1 | – | – | – | – | –
5 | C=Cc1c2c(OC)c(OC)ccc2c2cc(CC)c3c4c(cc5c3c2[n+]1CC5)OCO4.[Br-] | 1 | 2 | 32 | 1 | 2 | 4 | 1 | – | – | – | – | –
6 | COc1ccc2c(c1OC)c(-c1ccc(C)cc1)[n+]1c3c2ccc2c4c(cc(c23)CC1)OCO4.[Br-] | 8 | 16 | 16 | 8 | 16 | 16 | 16 | – | – | – | – | –
7 | CCCCc1cc2c3ccc(OC)c(OC)c3c(-c3ccccc3)[n+]3c2c2c(cc4c(c12)OCO4)CC3.[Br-] | 1 | 2 | 32 | 1 | 2 | 4 | 1 | – | – | – | – | –
8 | CCOc1c(OC)ccc2c1c(-c1ccccc1)[n+]1c3c2ccc2c4c(cc(c23)CC1)OCO4.[Br-] | 1 | 8 | 32 | 1 | 4 | 4 | 2 | – | – | – | – | –
9 | C=Cc1c2c(OC)c(OC)ccc2c2ccc3c4c(cc5c3c2[n+]1CC5)OCO4.[Br-] | 4 | 8 | 8 | 2 | 4 | 4 | 4 | – | – | – | – | –
10 | CCCCc1cc2c3ccc(OC)c(OC)c3c(-c3ccc(Cl)cc3)[n+]3c2c2c(cc4c(c12)OCO4)CC3.[Br-] | 1 | 1 | 32 | 1 | 1 | 2 | 1 | – | – | – | – | –
11 | COc1ccc2c(c1OC)c(C1CC1)[n+]1c3c2ccc2c4c(cc(c23)CC1)OCO4.[Br-] | 8 | 16 | 16 | 8 | 16 | 16 | 16 | – | – | – | – | –
12 | C=CCc1c2c(OC)c(OC)ccc2c2ccc3c4c(cc5c3c2[n+]1CC5)OCO4.[Br-] | 16 | 16 | 16 | 8 | 16 | 16 | 16 | – | – | – | – | –
13 | CCc1cc2c3ccc(OC)c(OC)c3c[n+]3c2c2c(cc4c(c12)OCO4)CC3.[Cl-] | 2 | 4 | 16 | 1 | 8 | 8 | 32 | – | – | – | – | –
14 | COc1cc2c3c(ccc4c5ccc(OC)c(OC)c5c(-c5ccccc5)[n+](c43)CC2)c1OC.[Br-] | 4 | 16 | 32 | 4 | 32 | 32 | > 128 | – | – | – | – | –
15 | COc1ccc2c(c1OC)c(-c1ccc(F)cc1)[n+]1c3c2ccc2c4c(cc(c23)CC1)OCO4.[Br-] | 8 | 8 | 16 | 4 | 16 | 16 | > 128 | – | – | – | – | –
16 | COc1cc2c3c(ccc4c5ccc(OC)c(OC)c5c(-c5ccc(Cl)cc5)[n+](c43)CC2)c1OC.[Br-] | 2 | 8 | 16 | 2 | 16 | 8 | > 128 | – | – | – | – | –
17 | CN[C@H](CC(C)C)C(=O)N[C@H]1C(=O)N[C@@H](CC(N)=O)C(=O)N[C@H]2C(=O)N[C@H]3C(=O)N[C@H](C(=O)N[C@H](C(=O)O)c4cc(O)cc(O)c4-c4cc3ccc4O)[C@H](O)c3ccc(c(Cl)c3)Oc3cc2cc(c3O[C@@H]2O[C@H](CO)[C@@H](O)[C@H](O)[C@H]2O[C@H]2C[C@](C)(N)[C@H](O)[C@H](C)O2)Oc2ccc(cc2Cl)[C@H]1O [VANCOMYCIN] | – | – | 8 (≈ 5.52 µM) | – | 2 (≈ 1.38 µM) | 32 (≈ 22.1 µM) | 64 (≈ 44.2 µM) | – | – | – | – | –
18 | CCCc1cc2c3ccc(OC)c(OC)c3c(-c3ccc(Cl)cc3)[n+]3c2c2c(cc4c(c12)OCO4)CC3.[Br-] | 2 | 8 | 32 | 4 | 16 | 32 | > 128 | – | – | – | – | –
19 | COc1ccc2c(c1OC)c(-c1ccc(Cl)cc1)[n+]1c3c2ccc2c4c(cc(c23)CC1)OCO4.[Br-] | 2 | 4 | 8 | 1 | 8 | 8 | > 128 | – | – | – | – | –
20 | CCCc1cc2c3ccc(OC)c(OC)c3c[n+]3c2c2c(cc4c(c12)OCO4)CC3.[Cl-] | 2 | 16 | 8 | 4 | 8 | 8 | 8 | – | – | – | – | –
21 | COc1ccc2c(c1OC)c(-c1ccc3c(c1)OCO3)[n+]1c3c2ccc2c4c(cc(c23)CC1)OCO4.[Br-] | 16 | 16 | 32 | 2 | 8 | 8 | 8 | – | – | – | – | –
22 | CCCc1cc2c3ccc(OC)c(OC)c3c(-c3ccccc3)[n+]3c2c2c(cc4c(c12)OCO4)CC3.[Br-] | 2 | 2 | 32 | 2 | 8 | 16 | > 128 | – | – | – | – | –
23 | CCc1cc2c3ccc(OC)c(OC)c3c(CC(C)C)[n+]3c2c2c(cc4c(c12)OCO4)CC3.[Br-] | 1 | 4 | 32 | 1 | 4 | 8 | 2 | – | – | – | – | –
24 | COc1ccc2c(c1OC)c(CC(C)C)[n+]1c3c2ccc2c4c(cc(c23)CC1)OCO4.[Br-] | 4 | 16 | 16 | 4 | 16 | 16 | 16 | – | – | – | – | –
25 | CCCCc1cc2c3ccc(OC)c(OC)c3c[n+]3c2c2c(cc4c(c12)OCO4)CC3.[Cl-] | 4 | 4 | 16 | 32 | 16 | 32 | 16 | – | – | – | – | –
26 | COc1ccc2c(c1OC)c(-c1ccccc1)[n+]1c3c2ccc2c4c(cc(c23)CC1)OCO4.[Br-] | 1 | 4 | 8 | 1 | 4 | 4 | 4 | 1 | >90 | 99.99 | 100 | Active
